Measurements from article PMC12299463, “Cladolosides of Groups S and T: Triterpene Glycosides from the Sea Cucumber Cladolabes schmeltzii with Unique Sulfation; Human Breast Cancer Cytotoxicity and QSAR” (Marine Drugs, 2025).
Where “and” joins values, the source holds several entries; their conditions need not be identical. Equal entries are not always repeated. Structures can show the parent of a compound that is named as a salt. Where two headings read alike, the source gives them in different places.

Legend:
[1] = tested on: MDA-MB-231 triple-negative breast cancer cells; experiment: cells; format: cell-based, human; settings: for Selectivity Index (SI), MDA-MB-231: ratio of IC50 for healthy (MCF-10A) and MDA-MB-231 cells
human erythrocytes = experiment: Hemolytic activity against human erythrocytes; format: cell-based; settings: for ED50, Erythrocytes (hemolytic activity): 1 h at 37 °C
Protocol: A total of 450 g of human blood (B(III) Rh+) was used to obtain erythrocytes by centrifuging three times for 5 min with phosphate-buffered saline (PBS) (pH 7.4) at 4 °C on a centrifuge LABOFUGE 400R (Heraeus, Hanau, Germany). Ice-cold PBS (pH 7.4) was used for resuspension of erythrocyte residue to a final optical density of 1.5 at 700 nm. Then, 20 µL of tested compound solutions or control (cucumarioside A0-1 [15]) were added to 180 µL of erythrocyte suspension in V-bottom 96-well plates and incubated for 1 h at 37 °C. After centrifugation (900 g, 10 min, laboratory centrifuge LMC-3000 (Biosan, Riga, Latvia)), 100 µL of supernatant was transferred into new flat plates. The values of erythrocyte lysis were measured on microplate photometer Multiskan FC (Thermo Fisher Scientific, Waltham, MA, USA) at λ = 570 nm as hemoglobin concentration in supernatant. […] All the experiments were carried out in triple repetitions, p < 0.05.

in vitro = format: cell-based, human; settings: human
[2] = tested on: MCF-7 human breast cancer cells; experiment: cells; format: cell-based;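 also: IC50 values, including those behind the selectivity ratio, derive from formazan absorbance at 570 nm, tested in triplicate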
[3] = tested on: T-47D human breast cancer cells; experiment: cells; format: cell-based; settings: for Selectivity Index (SI), T-47D: ratio of IC50 for healthy (MCF-10A) and T-47D cells;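 as to all read-outs here: cell viability read as absorbance of formazan dye at 570 nm, each experiment run in triplicate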
[4] = tested on: MCF-10A non-tumor mammary epithelial cell line; experiment: in vitro; format: cell-based, human
[5] = Homo sapiens, MDA-MB-231, read-out: Cytotoxicity, IC50, MDA-MB-231
[6] = Homo sapiens, MCF7, read-out: Cytotoxicity, IC50, MCF-7
[7] = Homo sapiens, T47D, read-out: Cytotoxicity, IC50, T-47D
[8] = MTT assay, MDA-MB-231, read-out: Cytotoxicity, IC50, MDA-MB-231
[9] = MTT assay, MCF-10A, read-out: Cytotoxicity, IC50, MCF-10A
[10] = MTT assay, MCF-7, read-out: Cytotoxicity, IC50, MCF-7
[11] = MTT assay, T-47D, read-out: Cytotoxicity, IC50, T-47D

Compound | IC50 [1, 5] | Hemolytic (membranolytic) activity, in words (human erythrocytes) | ED50, Erythrocytes (hemolytic activity) (human erythrocytes) | IC50 (in vitro) | IC50 [2, 6] | IC50 [3, 7] | Selectivity Index (SI), MDA-MB-231 [1] | Selectivity Index (SI), T-47D [3] | IC50 [1] | IC50 [4] | IC50 [2] | IC50 [3] | IC50 [1, 8] | IC50 [4, 9] | IC50 [2, 10] | Selectivity Index (SI), MCF-7 ([2]; ratio of IC50 for healthy (MCF-10A) and MCF-7 cells) | IC50 [3, 11] | ED50, Erythrocytes (hemolytic activity) (human erythrocytes; listed as cladoloside A3 (7))
CO[C@@H]1[C@@H](O)[C@H](O[C@@H]2[C@@H](O)[C@H](O[C@H]3[C@H](O)[C@@H](O)[C@H](O[C@H]4[C@H](O[C@H]5CC[C@]6(C)C7=CCC89C(=O)O[C@@](C)([C@@H](CCC(C)C)OC(C)=O)[C@H]8[C@@H](OC(C)=O)C[C@@]9(C)[C@@H]7CC[C@H]6C5(C)C)OC[C@@H](O[C@@H]5OC[C@@H](O)[C@H](O)[C@H]5O)[C@@H]4O)O[C@@H]3C)OC[C@H]2O)O[C@H](COS(=O)(=O)O)[C@H]1O (stereo partly drawn) [Cladoloside S1 (2), 3β-O-{6-O-sodium sulfate-3-O-methyl-β-D-glucopyranosyl-(1→3)-β-D-xylopyranosyl-(1→4)-β-D-quinovopyranosyl-(1→2)-[(1→4)-β-D-xylopyranosyl]-β-D-xylopyranosyl}-16S,22R-diacetoxyholost-9-en] | > 20 µM | moderately active | 4.78 ± 0.30 µM | > 20 µM | > 20 µM | > 20 µM |  |  |  |  |  |  |  |  |  |  |  | 
C=C(C)CC[C@@H](OC(C)=O)[C@]1(C)OC(=O)C23CC=C4[C@@H](CC[C@H]5C(C)(C)[C@@H](O[C@@H]6OC[C@@H](O[C@@H]7OC[C@@H](O)[C@H](O)[C@H]7O)[C@H](O)[C@H]6O[C@@H]6O[C@H](C)[C@@H](O[C@@H]7OC[C@@H](O)[C@H](O[C@@H]8O[C@H](COS(=O)(=O)O)[C@@H](O)[C@H](OC)[C@H]8O)[C@H]7O)[C@H](O)[C@H]6O)CC[C@]45C)[C@]2(C)C[C@H](OC(C)=O)[C@@H]31 (stereo partly drawn) [Cladoloside S (1), 3β-O-{6-O-sodium sulfate-3-O-methyl-β-D-glucopyranosyl-(1→3)-β-D-xylopyranosyl-(1→4)-β-D-quinovopyranosyl-(1→2)-[(1→4)-β-D-xylopyranosyl]-β-D-xylopyranosyl}-16S,22R-diacetoxyholosta-9,25-diene] | 13.2 ± 1.08 µM | moderately active | 3.40 ± 0.25 µM | > 20 µM | > 20 µM | 14.8 ± 0.71 µM | >1.51 | >1.35 |  |  |  |  |  |  |  |  |  | 
C=C(C)CC[C@@H](OC(C)=O)[C@]1(C)OC(=O)C23CC=C4[C@@H](CC[C@H]5C(C)(C)[C@@H](O[C@@H]6OC[C@@H](O[C@@H]7O[C@H](CO)[C@@H](O)[C@H](O[C@@H]8O[C@H](CO)[C@@H](O)[C@H](OC)[C@H]8O)[C@H]7O)[C@H](O)[C@H]6O[C@@H]6O[C@H](C)[C@@H](O[C@@H]7OC[C@@H](O)[C@H](O[C@@H]8O[C@H](CO)[C@@H](O)[C@H](OS(=O)(=O)O)[C@H]8O)[C@H]7O)[C@H](O)[C@H]6O)CC[C@]45C)[C@]2(C)C[C@H](OC(C)=O)[C@@H]31 (stereo partly drawn) [Cladoloside T (3), 3β-O-{3-O-sodium sulfate-β-D-glucopyranosyl-(1→3)-β-D-xylopyranosyl-(1→4)-β-D-quinovopyranosyl-(1→2)-[3-O-methyl-β-D-glucopyranosyl-(1→3)-β-D-glucopyranosyl-(1→4)]-β-D-xylopyranosyl}-16S,22R-diacetoxyholosta-9,25-diene] |  |  | 0.39 µM and 0.39 ± 0.03 µM |  |  |  |  |  | 3.41 ± 0.33 µM | 8.23 ± 0.52 µM | 8.99 ± 0.61 µM | 8.21 ± 0.72 µM |  |  |  |  |  | 
cucumarioside A0-1 [reference compound] |  |  | 1.63 ± 0.21 µM |  |  |  | 2.13 | 0.89 |  |  |  |  | 3.53 ± 0.54 µM | 7.51 ± 0.63 µM | 11.3 ± 1 µM | 0.66 | 8.46 ± 0.53 µM | 
C=C(C)CCC[C@]1(C)OC(=O)C23CC=C4[C@@H](CC[C@H]5C(C)(C)[C@@H](O[C@@H]6OC[C@@H](O)[C@H](O)[C@H]6O[C@@H]6O[C@H](C)[C@@H](O[C@@H]7OC[C@@H](O)[C@H](O[C@@H]8O[C@H](CO)[C@@H](O)[C@H](OC)[C@H]8O)[C@H]7O)[C@H](O)[C@H]6O)CC[C@]45C)[C@]2(C)C[C@H](OC(C)=O)[C@@H]31 (stereo partly shown) [A3 (7), cladoloside A3] |  | low hemolytic activity | 7.58 ± 0.69 µM |  |  |  |  |  |  |  |  |  | > 20 µM | > 20 µM | > 20 µM |  | > 20 µM | 7.58 µM
CO[C@@H]1[C@@H](O)[C@H](O[C@@H]2[C@@H](O)[C@H](O[C@H]3[C@H](O)[C@@H](O)[C@H](O[C@H]4[C@H](O[C@H]5CC[C@]6(C)C7=CCC89C(=O)O[C@@](C)(CCC=C(C)C)[C@H]8C(=O)C[C@@]9(C)[C@@H]7CC[C@H]6C5(C)C)OC[C@@H](O)[C@@H]4O)O[C@@H]3C)OC[C@H]2O)O[C@H](CO)[C@H]1O (stereo partly shown) [A4 (8), cladoloside A4] |  | weakest effect from the series | 13.60 ± 0.70 µM |  |  |  |  |  |  |  |  |  | > 20 µM | > 20 µM | > 20 µM |  | > 20 µM | 
